In brackets after ≈: the same amount, converted by molar mass. Each block holds one molecule with its values, some of them ahead of it.
Legend:
[1] = molecular target: Telomerase reverse transcriptase (Homo sapiens) (UniProt O14746); assay: Inhibition of telomerase (unknown origin) by qRT-PCR analysis relative to control; design: concentration or dose not given beside the values; conditions: concentration not given here
MCF7 [2] = assay: Cytotoxicity against human MCF7 cells assessed as inhibition of cell growth incubated for 72 hrs by MTT assay; format: functional, cell-based; conditions: MCF7, 72 h
A549 = assay: Cytotoxicity against human A549 cells assessed as inhibition of cell growth incubated for 72 hrs by MTT assay; format: functional, cell-based; conditions: A549, 72 h
Ehrlich [3] = assay: Anticancer activity against mouse solid Ehrlich carcinoma cells implanted in Swiss albino mouse assessed as increase in RBC count measured per million cells at 5 mg/kg administered thrice per week for 2 weeks starting from day 7 post tumor implantation by hematological assay (reference value: 2.93 +/- 0.18 10^6/ml); format: functional
Ehrlich [4] = assay: (§1) Anticancer activity against mouse solid Ehrlich carcinoma cells implanted in Swiss albino mouse assessed as decrease in serum AST level at 5 mg/kg administered thrice per week for 2 weeks starting from day 7 post tumor implantation by biochemical assay relative to control; format: functional; design: scale not given: the % may be the effect or the level left
Ehrlich [5] = assay: Anticancer activity against mouse solid Ehrlich carcinoma implanted in Swiss albino mouse assessed as reduction in tumor volume at 5 mg/kg administered thrice per week for 2 weeks starting from day 7 post tumor implantation relative to control; format: functional; design: scale not given: the % may be the effect or the level left
[6] = Toxicity in Swiss albino mouse implanted with mouse solid Ehrlich carcinoma assessed as confluent necrosis in liver at 5 mg/kg administered thrice per week for 2 weeks starting from day 7 post tumor implantation by H and E staining based histopathological analysis; format: organism-based; conditions: in vivo, 336 h
Ehrlich [7] = assay: Anticancer activity against mouse solid Ehrlich carcinoma implanted in Swiss albino mouse assessed as reduction in tumor weight at 5 mg/kg administered thrice per week for 2 weeks starting from day 7 post tumor implantation relative to control; format: functional; design: scale not given: the % may be the effect or the level left
Ehrlich [8] = assay: Anticancer activity against mouse solid Ehrlich carcinoma cells implanted in Swiss albino mouse assessed as increase in lymphocyte count at 5 mg/kg administered thrice per week for 2 weeks starting from day 7 post tumor implantation by hematological assay (reference value: 35.57 +/- 8.34 %); format: functional
Ehrlich [9] = assay: Anticancer activity against mouse solid Ehrlich carcinoma implanted in Swiss albino mouse assessed as reduction in tumor volume at 5 mg/kg administered thrice per week for 2 weeks starting from day 7 post tumor implantation relative to DOX; format: functional; design: scale not given: the % may be the effect or the level left
Ehrlich [10] = assay: Anticancer activity against mouse solid Ehrlich carcinoma cells implanted in Swiss albino mouse assessed as increase in hemoglobin level at 5 mg/kg administered thrice per week for 2 weeks starting from day 7 post tumor implantation by hematological assay (reference value: 4.67 +/- 0.19 g/dl); format: functional
Ehrlich [11] = assay: Anticancer activity against mouse solid Ehrlich carcinoma cells implanted in Swiss albino mouse assessed as decrease in serum ALT level at 5 mg/kg administered thrice per week for 2 weeks starting from day 7 post tumor implantation by biochemical assay relative to control; format: functional; design: scale not given: the % may be the effect or the level left
MCF7 [12] = assay: Induction of apoptosis in human MCF7 cells assessed as total apoptotic cells incubated for 48 hrs by Annexin-V/FITC staining based flow cytometry (reference value: 1.73 %); format: functional
Ehrlich [13] = assay: Anticancer activity against mouse solid Ehrlich carcinoma implanted in Swiss albino mouse assessed as reduction in tumor weight at 5 mg/kg administered thrice per week for 2 weeks starting from day 7 post tumor implantation relative to DOX; format: functional; design: scale not given: the % may be the effect or the level left
Ehrlich [14] = assay: as §1, with “total protein” for “AST”, “by biochemical assay tarting” for “starting”; format: functional; design: scale not given: the % may be the effect or the level left
[15] = Toxicity in Swiss albino mouse implanted with mouse solid Ehrlich carcinoma assessed as portal tract inflammation in liver at 5 mg/kg administered thrice per week for 2 weeks starting from day 7 post tumor implantation by H and E staining based histopathological analysis; format: organism-based; conditions: in vivo, 336 h
MCF7 [16] = assay: Cell cycle arrest in human MCF7 cells assessed as accumulation of cells at S phase at 3.1 uM incubated for 48 hrs by PI staining based flow cytometry (reference value: 28.71 %); format: functional
Ehrlich [17] = assay: Anticancer activity against mouse solid Ehrlich carcinoma cells implanted in Swiss albino mouse assessed as necrotic cells at 5 mg/kg administered thrice per week for 2 weeks starting from day 7 post tumor implantation by H and E staining based histopathological analysis relative to control; format: functional
Ehrlich [18] = assay: Anticancer activity against mouse solid Ehrlich carcinoma cells implanted in Swiss albino mouse assessed as increase in monocyte count at 5 mg/kg administered thrice per week for 2 weeks starting from day 7 post tumor implantation by hematological assay (reference value: 7.42 +/- 0.52 %); format: functional
Ehrlich [19] = assay: Anticancer activity against mouse solid Ehrlich carcinoma implanted in Swiss albino mouse assessed as increase in tumor inhibition ratio at 5 mg/kg administered thrice per week for 2 weeks starting from day 7 post tumor implantation relative to control; format: functional; design: scale not given: the % may be the effect or the level left
Ehrlich [20] = assay: Anticancer activity against mouse solid Ehrlich carcinoma cells implanted in Swiss albino mouse assessed as decrease in serum albumin level at 5 mg/kg administered thrice per week for 2 weeks by biochemical assay tarting from day 7 post tumor implantation by biochemical assay relative to control; format: functional; design: scale not given: the % may be the effect or the level left
[21] = Toxicity in Swiss albino mouse implanted with mouse solid Ehrlich carcinoma assessed as mesangial expansion at 5 mg/kg administered thrice per week for 2 weeks starting from day 7 post tumor implantation by H and E staining based histopathological analysis; format: organism-based; conditions: in vivo, 336 h
[22] = Toxicity in Swiss albino mouse implanted with mouse solid Ehrlich carcinoma assessed as tubular injury at 5 mg/kg administered thrice per week for 2 weeks starting from day 7 post tumor implantation by H and E staining based histopathological analysis; format: organism-based; conditions: in vivo, 336 h
[23] = Toxicity in Swiss albino mouse implanted with mouse solid Ehrlich carcinoma assessed as hydropic degeneration of hepatocytes at 5 mg/kg administered thrice per week for 2 weeks starting from day 7 post tumor implantation by H and E staining based histopathological analysis; format: organism-based; conditions: in vivo, 336 h
Ehrlich [24] = assay: Anticancer activity against mouse solid Ehrlich carcinoma cells implanted in Swiss albino mouse assessed as increase in neutrophil count at 5 mg/kg administered thrice per week for 2 weeks starting from day 7 post tumor implantation by hematological assay (reference value: 55.43 +/- 8.44 %); format: functional

Telomerase reverse transcriptase (Homo sapiens), sequence (O14746 whole entry): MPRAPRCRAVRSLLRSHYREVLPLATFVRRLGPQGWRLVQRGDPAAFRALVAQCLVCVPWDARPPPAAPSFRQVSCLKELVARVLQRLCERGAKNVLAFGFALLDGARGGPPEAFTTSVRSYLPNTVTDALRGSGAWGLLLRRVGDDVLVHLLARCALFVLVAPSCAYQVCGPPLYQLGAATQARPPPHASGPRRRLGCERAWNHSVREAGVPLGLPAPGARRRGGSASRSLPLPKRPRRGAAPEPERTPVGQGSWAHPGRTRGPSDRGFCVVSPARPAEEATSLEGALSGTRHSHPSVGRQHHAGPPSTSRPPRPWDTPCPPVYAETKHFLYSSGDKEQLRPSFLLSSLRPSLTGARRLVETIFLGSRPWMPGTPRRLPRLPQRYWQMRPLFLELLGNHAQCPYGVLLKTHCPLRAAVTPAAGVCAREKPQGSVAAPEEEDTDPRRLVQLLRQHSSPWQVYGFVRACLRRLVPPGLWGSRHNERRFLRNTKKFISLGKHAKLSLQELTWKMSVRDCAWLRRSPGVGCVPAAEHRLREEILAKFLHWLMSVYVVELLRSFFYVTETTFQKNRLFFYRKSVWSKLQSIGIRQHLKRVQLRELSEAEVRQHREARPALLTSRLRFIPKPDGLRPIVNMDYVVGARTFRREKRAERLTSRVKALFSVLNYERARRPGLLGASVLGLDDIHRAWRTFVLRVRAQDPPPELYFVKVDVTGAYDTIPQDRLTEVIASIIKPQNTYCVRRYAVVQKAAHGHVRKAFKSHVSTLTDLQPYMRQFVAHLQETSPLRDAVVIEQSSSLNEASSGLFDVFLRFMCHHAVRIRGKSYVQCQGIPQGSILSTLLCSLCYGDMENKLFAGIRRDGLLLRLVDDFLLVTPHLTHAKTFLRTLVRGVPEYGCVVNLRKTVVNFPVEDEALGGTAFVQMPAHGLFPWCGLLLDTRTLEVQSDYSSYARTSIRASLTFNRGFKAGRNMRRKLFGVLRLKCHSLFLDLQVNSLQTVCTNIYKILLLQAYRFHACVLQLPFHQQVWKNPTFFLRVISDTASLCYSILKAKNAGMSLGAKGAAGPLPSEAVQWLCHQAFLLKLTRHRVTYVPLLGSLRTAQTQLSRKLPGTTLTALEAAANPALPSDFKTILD

Structure (SMILES): N#Cc1c(NC(=O)CSc2ccc(-c3ccc(Br)cc3)nn2)sc2c1CCC2
inhibition [1]: 10.8%

Structure (SMILES): COc1ccc(-c2ccc(SCC(=O)Nc3sc4c(c3C#N)CCC4)nn2)cc1
inhibition [1]: 10.8%

Structure (SMILES): N#Cc1c(NC(=O)CSc2ccc(-c3ccc(F)cc3)nn2)sc2c1CCC2
inhibition [1]: 10.8%

Structure (SMILES): N#Cc1c(NC(=O)CSc2ccc(-c3ccccc3)nn2)sc2c1CCCC2
inhibition [1]: 10.8%

Structure (SMILES): N#Cc1c(NC(=O)CSc2ccc(-c3ccccc3)nn2)sc2c1CCC2
inhibition [1]: 10.8%

Structure (SMILES): Cc1ccc(-c2ccc(SCC(=O)Nc3sc4c(c3C#N)CCC4)nn2)cc1
Activity (Ehrlich [3]): 4.53 10^6/ml
Activity (Ehrlich [4]): 29.77%
Activity (Ehrlich [5]): 62.12%
IC50 (MCF7 [2]): 9.47 µg/mL (≈ 23.3 µM)
Activity [6]: Non-Toxic
Activity (Ehrlich [7]): 74.34%
IC50 (A549): 17.1 µg/mL (≈ 42 µM)
Activity (Ehrlich [8]): 39.14%
Activity (Ehrlich [9]): 4.3%
Activity (Ehrlich [10]): 6.74 g/dL
Activity (Ehrlich [11]): 36.12%
Activity (MCF7 [12]): 42.51%
Activity (Ehrlich [13]): 8.48%
Activity (Ehrlich [14]): 55.54%
Activity [15]: Toxic
Activity (MCF7 [16]): 42.02%
Activity (Ehrlich [17]): >90%
Activity (Ehrlich [18]): 9.72%
Activity (Ehrlich [19]): 62.12%
Activity (Ehrlich [20]): 28.31%
Activity [21]: Toxic
Activity [22]: Toxic
Activity [23]: Toxic

Structure (SMILES): COc1cccc2c1C(=O)c1c(O)c3c(c(O)c1C2=O)C[C@@](O)(C(=O)CO)C[C@@H]3O[C@H]1C[C@H](N)[C@H](O)[C@H](C)O1 [DOXORUBICIN]
Activity (Ehrlich [3]): 4.94 10^6/ml
Activity (Ehrlich [4]): 23.43%
Activity (Ehrlich [24]): 54.14%
Activity [6]: Toxic
Activity (Ehrlich [8]): 36.29%
Activity (Ehrlich [10]): 7.34 g/dL
Activity (Ehrlich [11]): 39.16%
Activity (Ehrlich [14]): 48.4%
Activity [15]: Non-Toxic
Activity (Ehrlich [17]): >90%
Activity (Ehrlich [18]): 8.42%
Activity (Ehrlich [19]): 60.4%
Activity (Ehrlich [20]): 35.71%
Activity [21]: Toxic
Activity [22]: Toxic
Activity [23]: Toxic

Now from value to molecule, other results behind:

inhibition [1]: 10.8%
Structure (SMILES): N#Cc1c(NC(=O)CSc2ccc(-c3ccc(Cl)cc3)nn2)sc2c1CCCC2

inhibition [1]: 10.8%
Structure (SMILES): N#Cc1c(NC(=O)CSc2ccc(-c3ccc(Br)cc3)nn2)sc2c1CCCC2

inhibition [1]: 49.1%
Structure (SMILES): Cc1ccc(-c2ccc(SCC(=O)Nc3sc4c(c3C#N)CCCC4)nn2)cc1
IC50 (MCF7 [2]): 34.5 µg/mL (≈ 82.1 µM)
IC50 (A549): 63.8 µg/mL (≈ 152 µM)

inhibition [1]: 10.8%
Structure (SMILES): N#Cc1c(NC(=O)CSc2ccc(-c3ccc(F)cc3)nn2)sc2c1CCCC2

inhibition [1]: 10.8%
Structure (SMILES): COc1ccc(-c2ccc(SCC(=O)Nc3sc4c(c3C#N)CCCC4)nn2)cc1

inhibition [1]: 10.8%
Structure (SMILES): N#Cc1c(NC(=O)CSc2ccc(-c3ccc(Cl)cc3)nn2)sc2c1CCC2

Reference: ChEMBL document CHEMBL5316266, “Ligand-Based Design on the Dog-Bone-Shaped BIBR1532 Pharmacophoric Features and Synthesis of Novel Analogues as Promising Telomerase Inhibitors with In Vitro and In Vivo Evaluations” (J Med Chem, 2023)
